# Measurements from patent US11655468B2, “Methods and compositions of chemically modified phage libraries” (priority 2018, dated 2023).
# Entries after “also recorded” stand apart in the source; their conditions may differ. Like-named read-outs stand apart in the source and are kept apart here. Non-standard residues stand in square brackets, D forms with d. Residues, ends and D or L forms follow the SMILES beside them. *: point of attachment. X2 = O=C1OC2(c3ccc(C(=O)*)cc31)c1cc(Br)c(O)c(Br)c1Oc1c2cc(Br)c(O)c1Br; 5FAM = O=C1OC2(c3ccc(O)cc3Oc3cc(O)ccc32)c2ccc(C(=O)*)cc21; X1 = CC(=O)c1ccc(OCCCNC(=O)C*)cc1B(O)O; Dap = NC[C@H](N)C(=O)O
# How the values were obtained:
# [1] = biological target: HSA (Homo sapiens, UniProt P02768); test: Fluorescence anisotropy protein binding (HSA); settings: 500 nM peptide, PBS pH 7.4, 1 hour, high protein concentrations
# HSA, sequence (P02768 25-609): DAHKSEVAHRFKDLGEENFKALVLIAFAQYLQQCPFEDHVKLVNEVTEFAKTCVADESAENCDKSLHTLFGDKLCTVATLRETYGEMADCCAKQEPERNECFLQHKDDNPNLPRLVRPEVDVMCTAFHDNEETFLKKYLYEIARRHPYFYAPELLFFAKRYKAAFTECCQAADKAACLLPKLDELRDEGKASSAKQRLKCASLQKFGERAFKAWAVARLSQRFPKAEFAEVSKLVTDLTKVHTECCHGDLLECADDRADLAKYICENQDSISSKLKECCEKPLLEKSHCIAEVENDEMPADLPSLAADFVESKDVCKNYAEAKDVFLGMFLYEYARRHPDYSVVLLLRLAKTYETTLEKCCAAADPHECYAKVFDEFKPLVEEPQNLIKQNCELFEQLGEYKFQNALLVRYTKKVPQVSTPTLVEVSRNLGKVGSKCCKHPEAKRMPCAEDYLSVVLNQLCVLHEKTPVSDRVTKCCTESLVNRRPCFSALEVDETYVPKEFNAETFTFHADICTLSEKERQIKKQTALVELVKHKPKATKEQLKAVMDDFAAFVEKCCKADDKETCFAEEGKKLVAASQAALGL
# Description: (§1) (A) Flow cytometry comparison of HSA and BSA in enhancing KAM5 binding to S. aureus. (B) Assessing protein binding of KAM5 using fluorescence anisotropy, for which various concentrations of BSA or HSA were delivered to a 96-well plate (Corning 3603) in PBS (pH 7.4). Peptide was added at a final concentration of 500 nM and incubated for 1 hour. Anisotropy values were measured (Ex: 495 nm, Em: 532 nm) and plotted as an average of three trials with standard deviations. Fluorescein was used as a negative control. The results clearly show binding of KAM5 to these serum proteins.
# [2] = test system: S. aureus; test: Fluorescence microscopy of S. aureus staining by TAMRA-labeled peptides; assay type: cell-based, S. aureus (ATCC 6538)
# Description: (§2) Each bacterial strain was grown to an OD600˜1.0, washed and diluted with PBS (pH 7.4). The cells (˜1×10^9 cfu/mL) were incubated with various concentrations of TAMRA-labeled peptide with or without BSA in PBS for 1 hour. The same microscopy procedure described was implemented using filter set 20 HE (excitation: BP 546/12, emission: BP 607/80) suitable for detection of TAMRA fluorescence and images were processed consistently using ImageJ software.
# [3] = test system: Escherichia coli; test: Flow cytometry and fluorescence microscopy of E. coli staining; assay type: cell-based
# Description: (§3) Each bacterial strain was grown to an OD600˜0.5, washed and diluted with PBS (pH 7.4). The cells (˜1×10^7 cfu/mL) were incubated with various concentrations of FAM-labeled peptide with or without BSA in PBS. After incubation for 1 hour, samples were subjected to cytometric analysis. Data obtained was analyzed via BD FACSDiva software and median fluorescent values were computed from the generated histograms. All flow cytometry experiments were repeated and generated consistent results (see FIG. 14).
# as §2
# [4] = test system: methicillin-resistant strain of S. aureus (ATCC 43300); test: Fluorescence microscopy of MRSA staining by TAMRA-labeled peptide; assay type: cell-based; settings: 2 μM (FIG. 17)
# Description: as §2
# [5] = biological target: BSA (Bos taurus, UniProt P02769); test: Fluorescence anisotropy protein binding (BSA); parameters: species or system bovine; settings: 500 nM peptide, PBS pH 7.4, 1 hour, high protein concentrations
# Description: as §1
# [6] = test system: Bacillus subtilis; test: Flow cytometry and fluorescence microscopy of B. subtilis staining; assay type: cell-based; settings: up to 10 μM peptide; flow cytometry with 1 mg/mL BSA and microscopy
# Description: as §3, §2
# [7] = test system: S. aureus; test: Flow cytometry analysis of S. aureus staining by FAM-labeled peptides; assay type: cell-based, S. aureus (ATCC 6538); settings: for S. aureus staining of control peptides: 1 μM peptide, 1 mg/mL BSA (FIG. 2C)
# Description: as §3
# [8] = test system: S. aureus; assay type: cell-based, S. aureus (ATCC 6538); settings: for S. aureus cell death by controls: 1 μM and 2 μM, photoirradiation
# Description: (§4) Each bacterial strain was grown to an OD600˜0.7, washed and diluted with PBS (pH 7.4). The cells (˜1×10^8 cfu/mL) were incubated with eosin-conjugated peptides and various controls for 15 minutes. Half of the bacterial suspension was removed and placed in a 96-well plate (Corning 3595). The well was subjected to photoirradiation on the Zeiss microscope using the 20× objective and fluorescein filter to emit blue light for 15 minutes. Cells were diluted in LB media, spread on LB agar plates and incubated overnight at 37° C. The A. baumannii (LOS−) strain was spread on LB agar (+10 μg/mL polymyxin b) and incubated for 24 hours. The amount of cell killing was calculated by comparing the amount of colonies of treated bacteria to an untreated PBS control. All experiments were repeated and the average cell killing of two trials was plotted.
# [9] = test system: Jurkat cells; settings: MTT, 24 hrs, with or without photoirradiation
# Description: Jurkat cells were cultured in RPMI 1640 (containing 10% FBS, 2 mM glutamine, 1% Penicillin/Streptomycin) and maintained at 5×10^5 cells/mL. Cells were diluted in RPMI and distributed to a 96-well plate (Corning 3595) at 50,000 cells/well (200 μL/well). […] A positive control for viability of DMSO treated cells along with a positive control for cytotoxicity of camptothecin at 50 μM (5 mM DMSO stock) were included. For photoirradiation, the cells were incubated with the compound of interest for 15 minutes, each well was irradiated for 15 minutes (see photoinactivation protocol-paragraph 0053) and the plate was returned to the incubator for the remainder of the 24 hour incubation. Cells were centrifuged for 5 minutes (180 rcf) and the supernatant culture medium was carefully removed. 100 μL of 3-(4,5-dimethylthiazol-2-yl)-2,5-diphenyltetrazolium bromide (MTT, 0.5 mg/mL in RPMI) was added to each well and incubated for 4 hours followed by the addition of 10% SDS in 0.01 M HCl (100 μL) and incubation overnight.
# (§5) All incubations were performed at 37° C. and 5% CO2. Absorbance readings were measured at 570 nm and cell viability was normalized to the DMSO control as an average of three trials for non-irradiated samples and an average of two trials for photoirradiated samples with standard deviations.
# [10] = test system: B. subtilis; test: Photoinactivation of bacteria, B. subtilis; assay type: cell-based; settings: 2 μM peptide followed by photoirradiation
# Description: as §4
# [11] = test system: MRSA; test: Photoinactivation of bacteria, MRSA; assay type: cell-based, S. aureus (ATCC 43300); settings: same experimental conditions, photoirradiation (FIG. 19)
# Description: as §4
# [12] = test system: E. coli; test: Photoinactivation of bacteria, E. coli; assay type: cell-based; settings: 2 μM peptide followed by photoirradiation
# Description: as §4
# [13] = test system: HEK293T cells; settings: MTT, 24 hrs, with or without photoirradiation
# Description: HEK293T cells were grown in complete DMEM (containing 10% FBS, 2 mM glutamine and 1% Penicillin/Streptomycin) to about 80% confluency in a 150 mm dish. Cells were removed from the plate with 0.25% trypsin protease solution (containing EDTA) at 37° C. for 5 minutes and pelleted (3,500 rpm, 5 minutes). Cells were diluted in DMEM, distributed to a 96-well plate (Corning 3595) at 30,000 cells/well (100 μL/well) and incubated for 24 hours to allow for cell adherence. 1 μL of 100× DMSO solutions were added to each well and incubations/photoirradiation were performed as described above. After 24 hours, the supernatant culture medium was carefully removed and the cells were incubated with 100 μL MTT (0.5 mg/mL in RPMI) for 4 hours followed by the addition of 10% SDS in 0.01 M HCl (100 μL) and incubation overnight.
# as §5
# [14] = test system: A. baumannii (LOS−); test: Fluorescence microscopy of A. baumannii (LOS−) staining; assay type: cell-based, A. baumannii (AB5075 LOS−); settings: TAMRA labeled peptide, 2 μM
# Description: as §2
# [15] = test system: wild type A. baumannii (LOS+); test: Fluorescence microscopy and flow cytometry of wild type A. baumannii (LOS+) staining; assay type: cell-based, A. baumannii (AB5075); settings: microscopy, same conditions as LOS− strain (legend FIG. 5B: 10 μM for LOS+)
# Description: as §3, §2
# [16] = test system: A. baumannii (LOS−); test: Flow cytometry analysis of A. baumannii (LOS−) staining; assay type: cell-based, A. baumannii (AB5075 LOS−); settings: for binding of negative controls to A. baumannii (LOS−) compared with KAM8: 1 μM, 1 mg/mL BSA (FIG. 21B)
# Description: as §3
# [17] = test system: LOS− A. baumannii; test: Photoinactivation of bacteria, A. baumannii (LOS−); assay type: cell-based, A. baumannii (AB5075 LOS−); settings: for A. baumannii (LOS−) cell death by controls: at these concentrations, photoirradiation (FIG. 5C)
# Description: as §4
# [18] = Aggregation of peptide in flow cytometry samples; assay type: physicochemical; settings: concentrations higher than 3 μM
# [19] = test system: wild-type (LOS+) A. baumannii; test: Photoinactivation of bacteria, A. baumannii (LOS+); assay type: cell-based, A. baumannii (AB5075); settings: same conditions, 2 μM, photoirradiation (FIG. 5D)
# Description: as §4
molecule,measurement,setting,value
"CC(=O)c1ccc(OCCCNC(=O)CSC[C@H](NC(=O)[C@H](C)N)C(=O)N[C@H](C(=O)N[C@@H](CO)C(=O)N2CCC[C@H]2C(=O)N[C@@H](CCCNC(=N)N)C(=O)N[C@@H](CO)C(=O)N[C@@H](Cc2c[nH]cn2)C(=O)N[C@@H](CCC(=O)O)C(=O)N[C@@H](CSCC(=O)NCCCOc2ccc(C(C)=O)c(B(O)O)c2)C(=O)NCC(=O)NCC(=O)NCC(=O)N[C@@H](CNC(=O)c2ccc3c(c2)C(=O)OC32c3ccc(O)cc3Oc3cc(O)ccc32)C(N)=O)C(C)C)cc1B(O)O [KAM5, ACmVSPRSHECmGGGDap*] (H-AC(X1)VSPRSHEC(X1)GGG[Dap](5FAM)-NH2; N-terminus assumed)",binding to HSA,[1],did show binding
same,effect of BSA addition on S. aureus staining,"[2]; 2 μM peptide, BSA up to 10 mg/mL",did not inhibit
same,fluorescence staining of S. aureus cells,"[2]; TAMRA labeled peptide, 2 μM",strong fluorescence staining
same,staining of E. coli,"[3]; up to 10 μM peptide, flow cytometry with 1 mg/mL BSA and microscopy",negligible staining
same,staining of methicillin-resistant S. aureus compared with strain used in phage display,[4],equally potent staining
same,binding to BSA,[5],did show binding
same,staining of B. subtilis,[6],negligible staining
same,potency for labeling S. aureus cells compared with KAM14-17,[7]; flow cytometry (FIG. 18),superior potency
same,S. aureus binding potency compared with Hlys-AB1,"[7]; flow cytometry, 1 mg/mL BSA (FIG. 15)",much greater than that of Hlys-AB1
same,S. aureus cell death by controls,[8],did not elicit cell death
"CC(=O)c1ccc(OCCCNC(=O)CSC[C@H](NC(=O)[C@H](C)N)C(=O)N[C@H](C(=O)N[C@@H](CO)C(=O)N2CCC[C@H]2C(=O)N[C@@H](CCCNC(=N)N)C(=O)N[C@@H](CO)C(=O)N[C@@H](Cc2c[nH]cn2)C(=O)N[C@@H](CCC(=O)O)C(=O)N[C@@H](CSCC(=O)NCCCOc2ccc(C(C)=O)c(B(O)O)c2)C(=O)NCC(=O)NCC(=O)NCC(=O)N[C@@H](CNC(=O)c2ccc3c(c2)C(=O)OC32c3cc(Br)c(O)c(Br)c3Oc3c2cc(Br)c(O)c3Br)C(N)=O)C(C)C)cc1B(O)O [KAM5-Eosin, ACmVSPRSHECmGGGDap*] (H-AC(X1)VSPRSHEC(X1)GGG[Dap](X2)-NH2; N-terminus assumed)","mammalian cell toxicity, Jurkat cells",[9],no mammalian cell toxicity
same,cell death of B. subtilis,[10],no significant cell death
same,cell killing of MRSA compared with S. aureus strain used in selection,[11],comparable percentage of cell killing; also recorded: comparable potency
same,cell death of E. coli,[12],no significant cell death
same,cell killing of S. aureus,[8]; 1 μM,74%
same,cell killing of S. aureus,[8]; 2 μM,92%
same,"mammalian cell toxicity, HEK 293T cells",[13],no mammalian cell toxicity
"CC(=O)c1ccc(OCCCNC(=O)CSC[C@H](NC(=O)[C@H](C)N)C(=O)N[C@H](C(=O)N[C@@H](CC(C)C)C(=O)N2CCC[C@H]2C(=O)N[C@@H](CC(N)=O)C(=O)NCC(=O)N2CCC[C@H]2C(=O)N[C@@H](CCCNC(=N)N)C(=O)N[C@@H](CSCC(=O)NCCCOc2ccc(C(C)=O)c(B(O)O)c2)C(=O)NCC(=O)NCC(=O)NCC(=O)N[C@@H](CNC(=O)c2ccc3c(c2)C(=O)OC32c3ccc(O)cc3Oc3cc(O)ccc32)C(N)=O)[C@@H](C)O)cc1B(O)O [KAM8, ACmTLPNGPRCmGGGDap*] (H-AC(X1)TLPNGPRC(X1)GGG[Dap](5FAM)-NH2; N-terminus assumed)",binding to S. aureus,"[2]; TAMRA labeled peptide, 2 μM, 1 mg/mL BSA (FIG. 22)",no binding
same,binding to E. coli,"[3]; microscopy, TAMRA labeled peptide, 2 μM, 1 mg/mL BSA (FIG. 22)",no binding
same,fluorescence staining of LOS− A. baumannii,[14],bright fluorescence staining
same,fluorescence staining of wild type A. baumannii (LOS+),[15],little fluorescence staining
same,effect of BSA on binding to A. baumannii (LOS−),[16]; 1 mg/mL BSA,enhanced bacterial staining
same,A. baumannii (LOS−) cell death by controls,[17],did not elicit A. baumannii cell death
"O=C1OC2(c3ccccc31)c1cc(Br)c(O)c(Br)c1Oc1c2cc(Br)c(O)c1Br [eosin, reference compound]",A. baumannii (LOS−) cell death by controls,[17],did not elicit A. baumannii cell death
same,S. aureus cell death by controls,[8],did not elicit cell death
ACAKIFTGCCGGGDap* [KAM14],aggregation,[18],aggregation at higher concentrations
ACTLPNGPRCGGGDap* [KAM8-Cyclic],binding of negative controls to A. baumannii (LOS−) compared with KAM8,[16],much reduced binding
ACVSPRSHECGGGDap* [KAM5-Cyclic],S. aureus staining of control peptides,[7]; flow cytometry,little S. aureus staining
ACmGPTAKYICmGGGDap* [KAM6],binding of negative controls to A. baumannii (LOS−) compared with KAM8,[16],much reduced binding
same,S. aureus staining of control peptides,[7]; flow cytometry,no bacterial staining
ACmTLPNGPRCmGGGDap* [KAM8-Eosin],cell killing of LOS− A. baumannii,[17]; 15 min light,> 90%
same,killing of wild-type (LOS+) A. baumannii,[19],little killing
